Measurements published in patent US10905738B2, “Synthetic peptides, prodrugs, pharmaceutical compositions and uses” (Biozeus Desenvolvimento De Produtos Biofarmacêuticos, priority 2018, dated 2021).

How the values were obtained:
[1] = tested on: smooth muscle of tracheal rings; assay: spasmodic contraction of tracheal rings ex vivo (histamine-induced); set-up: species or system Dunkin-Hartley guinea pigs; conditions: for relaxing effect on airway (tracheal ring) smooth muscle, in words: histamine-induced contraction ex vivo; for Effectiveness (Emax) (%): relaxation of tracheal rings contracted by histamine (50 μM); for Effectiveness (Emax) (%) / Potency (pEC50) Molar: mean±SEM; for Potency (pEC50) Molar: tracheal rings contracted by histamine (50 μM), peptides 0.01 to 10 μM
Procedure: The magnitude of the relaxing effect of the peptides was evaluated by means of a model of spasmodic contraction of tracheal rings ex vivo, largely employed to test new bronchodilating agents (see CULLUM, V. A., FARMER, J. B., JACK, D., LEVY, G. P. Salbutamol: a new, selective β-adrenoceptive receptor stimulant. British journal of pharmacology, 35(1): 141-151. 1969; KAO, C. H., CHU, Y. H., WANG, H. W. Effects of lidocaine on rat's isolated tracheal smooth muscle. European Archives of Oto-Rhino-Laryngology, 267(5): 817-820. 2010; SORIANO-URSÚA, M. A., VALENCIA-HERNÁNDEZ, I., ARELLANO-MENDOZA, M. G., CORREA-BASURTO, J., TRUJILLO-FERRARA, J. G. Synthesis, pharmacological and in silico evaluation of 1-(4-dihydroxy-3, 5-dioxa-4-borabycyclo [4.4.0] deca-7,9,11-trien-9-yl)-2-(tert-butylamine) ethanol, a compound designed to act as a β2 adrenoceptor agonist. European journal of medicinal chemistry, 44(7): 2840-2846. 2009).
For each test, Dunkin-Hartley guinea pigs (400-500 g) were euthanized in a CO2 atmosphere; subsequently, the trachea was exposed, removed and sectioned in segments of 1 to 3 cartilaginous tracheal rings. Each segment was transferred to an individual organ bath system containing Krebs nutritive solution (NaCl 118 mM; KCl […]; CaCl2) 2.5 mM; MgSO4 1.2 mM; KH2PO4 1.2 mM; NaHCO324 mM; glucose 11 mM) at 37° C., under constant aeration with a carbogenic mixture (95% of O2 and 5% of CO2). In each system, a stem fixed to the base of the container and another connected to an isometric transducer (GRASS FT-03) made up the support of the fragments. A data digitizing system connected to the isometric transducer allowed the recording of tension variations produced by the contraction of the tracheal rings (PowerLab™ 16/30, LabChart, version 8.1, AD Instruments, Australia). The basal tension was adjusted to 1 g, and subsequently, the contractility of the fragments was evaluated by a stimulus with carbachol (2.5 μM). After 1 h at rest, the basal tension was recovered and the tissues were subjected to contraction induced by histamine (50 μM) followed by exposure to increasing concentrations of the treatments (0.01 to 10 μM; n=8) or the comparator PnTx(19).
Table 1 lists the mean±SEM of the potency values, shown as the negative logarithm of the concentration that reduced the voltage to 50% of the maximum Histamine-induced contraction (pEC50), and efficacy (Emax), calculated from at least 8 independent tests using the sigmoid nonlinear regression equation of the software Graph Prism 5.0 (GraphPad Software, La Jolla, Ca, USA).

[2] = tested on: smooth muscle of pulmonary arteries; assay: relaxation of pulmonary arteries contracted with phenylephrine ex vivo; set-up: species or system male Wistar rats; conditions: n = 9; for pEC50: pulmonary arteries contracted with phenylephrine, peptides 1 nM-10 μM, mean±SEM; for Effectiveness (Emax) (%): relaxation percentage related to maximum phenylephrine contraction
Description: The ex vivo model of pulmonary artery smooth muscle contraction with phenylephrine is very useful to screen candidate compounds for lung diseases that demand vasodilating effects (ALENCAR, A. K., PEREIRA, S. L., MONTAGNOLI, T. L., MAIA, R. C., KUMMERLE, A. E., LANDGRAF, S. S., CARUSO-NEVES, C., FERRAZ, E. B., TESCH, R., NASCIMENTO, J. H., DE SANT'ANNA, C. M., FRAGA, C. A., BARREIRO, E. J., SUDO, R. T., ZAPATA-SUDO, G. Beneficial effects of a novel agonist of the adenosine A2A receptor on monocrotaline-induced pulmonary hypertension in rats. Br J Pharmacol, 169: 953-62. 2013).
Rats were anesthetized with midazolam and ketamine (2 mg/kg and 100 mg/kg, respectively) via intraperitoneal administration. After infusion of a lethal dose of sodium thiopental via intraperitoneal administration (50 mg/kg), the trunk of the pulmonary artery was carefully removed via sternotomy. The pulmonary artery was carefully dissected and the connective tissue removed. The arteries were connected to a force transductor, positioned in vertical chambers filled with Krebs solution, oxygenated and kept at 37° C.
After a stabilization period of 2 hours at a tension of 1.5 grams, the arteries were exposed to increasing doses of phenylephrine (1 nM-10 μM) in order to obtain maximum smooth muscle contraction and then exposed to increasing doses of selected peptides in the concentrations of 1 nM-10 μM each (n=9). The tension generated by the pulmonary artery was evaluated at intervals of 5 minutes for each dose (ALENCAR, A. K., PEREIRA, S. L., MONTAGNOLI, T. L., MAIA, R. C., KUMMERLE, A. E., LANDGRAF, S. S., CARUSO-NEVES, C., FERRAZ, E. B., TESCH, R., NASCIMENTO, J. H., DE SANT'ANNA, C. M., FRAGA, C. A., BARREIRO, E. J., SUDO, R. T., ZAPATA-SUDO, G. Beneficial effects of a novel agonist of the adenosine A2A receptor on monocrotaline-induced pulmonary hypertension in rats. Br J Pharmacol 169: 953-62. 2013; ALENCAR, A. K., PEREIRA, S. L., DA SILVA, F. E., MENDES, L. V., CUNHA VDO, M., LIMA, L. M., MONTAGNOLI, T. L., CARUSO-NEVES, C., FERRAZ, E. B., TESCH, R., NASCIMENTO, J. H., SANT'ANNA, C. M., FRAGA, C. A., BARREIRO, E. J., SUDO, R. T., ZAPATA-SUDO, G. N-acylhydrazone derivative ameliorates monocrotaline-induced pulmonary hypertension through the modulation of adenosine AA2R activity. International Journal of Cardiology, 173(2): 154-62. 2014).
Potency values are shown as the negative logarithm of the concentration that reduced the voltage to 50% of the maximum phenylephrine-induced contraction (pEC50), and they are expressed as mean±SEM. The maximum contraction achieved in a given artery was considered to be 100% of contraction, and the effectiveness (Emax) was expressed as the relaxation percentage related to this maximum value. The results were calculated from at least 3 independent tests using the sigmoid non-linear regression equation, and the statistical analysis of the concentration curve was done by performing a nonlinear fit of the logarithmic of the agonist versus response. All the above calculations were performed on the software Graph Prism 5.0 (GraphPad Software, La Jolla, Calif., USA). Tension analysis was performed on the software LabChart7 (AD Instruments, Sydney, Australia). As a cutoff to determine biological significance, we considered pulmonary artery relaxation values above 30% as biologically relevant, considered those as active and then calculated the Emax values (SUN, C. K., LIN, Y. C., YUEN, C. M., CHUA, S., CHANG, L. T., SHEU, J. J., LEE, F. Y., FU, M., LEU, S., YIP, H. K. Enhanced protection against pulmonary hypertension with sildenafil and endothelial progenitor cell in rats. International journal of cardiology, 162(1): 45-58. 2012; ALENCAR, A. K., PEREIRA, S. L., DA SILVA, F. E., MENDES, L. V., CUNHA VDO, M., LIMA, L. M., MONTAGNOLI, T. L., CARUSO-NEVES, C., FERRAZ, E. B., TESCH, R., NASCIMENTO, J. H., SANT'ANNA, C. M., FRAGA, C. […]

Substance | relaxing effect on airway (tracheal ring) smooth muscle, in words [1] | Effectiveness (Emax) (%) [1] | Potency (pEC50) Molar [1] | pEC50 [2] | Effectiveness (Emax) (%) [2]
RAYFWIAWYKLANSK [SEQ ID NO: 1, Ac-Arg-Ala-Tyr-Phe-Trp-Ile-Ala-Trp-Tyr-Lys-Leu-Ala-Asn-Ser-Lys-NH2] | effective | 45.7 ± 4.3% | 7.1 ± 0.4 Molar | – | –
IAWYKGGGGGIAWYK [SEQ ID NO: 28, Ac-Ile-Ala-Trp-Tyr-Lys-Gly-Gly-Gly-Gly-Gly-Ile-Ala-Trp-Tyr-Lys-NH2] | – | Inactive | Inactive | – | –
IAWYKRGGGGGRKYWAI [SEQ ID NO: 29, Ac-Ile-Ala-Trp-Tyr-Lys-Arg-Gly-Gly-Gly-Gly-Gly-Arg-Lys-Tyr-Trp-Ala-Ile-NH2] | – | Inactive | Inactive | – | –
YFWIAWYKLAN [SEQ ID NO: 18, Ac-Tyr-Phe-Trp-Ile-Ala-Trp-Tyr-Lys-Leu-Ala-Asn-NH2] | – | 38.0 ± 2.3% | 7.2 ± 0.3 Molar | 6.5 ± 9.3 | 18% ± 9.12
RQYFWIAWYKIASNK [SEQ ID NO: 6, Ac-Arg-Gln-Tyr-Phe-Trp-Ile-Ala-Trp-Tyr-Lys-Ile-Ala-Ser-Asn-Lys-NH2] | – | 25.3 ± 1.7% | 7.0 ± 0.3 Molar | – | –
RQAFWIAWYKLANSK [SEQ ID NO: 3, Ac-Arg-Gln-Ala-Phe-Trp-Ile-Ala-Trp-Tyr-Lys-Leu-Ala-Asn-Ser-Lys-NH2] | effective | 36.7 ± 1.9% | 6.8 ± 0.2 Molar | – | –
WIAWYKL [SEQ ID NO: 23, Ac-Trp-Ile-Ala-Trp-Tyr-Lys-Leu-NH2] | – | 35.5 ± 2.3% | 7.5 ± 0.3 Molar | 6.1 ± 6.2 | 4% ± 6.07
AQYFWIAWYKLANSK [SEQ ID NO: 4, Ac-Ala-Gln-Tyr-Phe-Trp-Ile-Ala-Trp-Tyr-Lys-Leu-Ala-Asn-Ser-Lys-NH2] | effective | 38.8 ± 3.5% | 6.8 ± 0.3 Molar | – | –
RQYFWIAWY [SEQ ID NO: 20, Ac-Arg-Gln-Tyr-Phe-Trp-Ile-Ala-Trp-Tyr-NH2] | – | 37.8 ± 2.9% | 7.1 ± 0.3 Molar | 6.1 ± 6.9 | 6% ± 7.64
RQYFWIAW [SEQ ID NO: 22, Ac-Arg-Gln-Tyr-Phe-Trp-Ile-Ala-Trp-NH2] | – | 35.2 ± 1.8% | 7.0 ± 0.2 Molar | 5.8 ± 3.1 | 8% ± 2.83
RQYFWIAWYKLANSA [SEQ ID NO: 2, Ac-Arg-Gln-Tyr-Phe-Trp-Ile-Ala-Trp-Tyr-Lys-Leu-Ala-Asn-Ser-Ala-NH2] | effective | 40.4 ± 2.6% | 6.9 ± 0.2 Molar | – | –
IAWYKGGGGGIAWYKGGGGGIAWYK [SEQ ID NO: 30] | – | Inactive | Inactive | – | –
QYFWIAWYKLANS [SEQ ID NO: 17, Ac-Gln-Tyr-Phe-Trp-Ile-Ala-Trp-Tyr-Lys-Leu-Ala-Asn-Ser-NH2] | – | 37.1 ± 2.6% | 6.8 ± 0.3 Molar | 7.8 ± 3.0 | 15% ± 2.6
